These results are taken from patent US7470549B2, “Measurement method using biosensor” (FUJIFILM Corporation, priority 2004, dated 2008).

In assay [1] the target is T1, Trypsin (Bos taurus, UniProt P00760).
T1 sequence (P00760 24-246): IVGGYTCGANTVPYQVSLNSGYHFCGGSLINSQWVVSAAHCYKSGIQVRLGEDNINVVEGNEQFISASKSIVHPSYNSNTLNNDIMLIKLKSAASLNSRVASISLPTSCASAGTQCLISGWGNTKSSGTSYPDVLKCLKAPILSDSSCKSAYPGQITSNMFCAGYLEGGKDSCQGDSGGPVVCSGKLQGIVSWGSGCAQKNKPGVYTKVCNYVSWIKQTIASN
In words: Selection of compounds by affinity: SPR binding to trypsin-immobilized PMMA/PEO sensor chip (Example 6). The conditions noted are these: for Binding amount (RU): left at rest 10 minutes, change of resonance signal, PMMA sensor chip. As for the experimental part:
Using the SPR system used for screening shown in FIG. 1, immobilization of a ligand, the binding measurement of compounds, and selection of compounds were carried out.
Thereafter, it was placed in a spin coater (MODEL ASS-303; manufactured by ABLE) and then rotated at 1,000 rpm. 50 μl of a methyl ethyl ketone solution containing polymethyl methacrylate (2 mg/ml) was added dropwise to the center of the cover glass coated with gold via evaporation, and 2 minutes later, the rotation was terminated. The thickness of the membrane was measured by the ellipsometry method (In-Situ Ellipsometer MAUS-101; manufactured by Five Lab). […] This sample is called a PMMA surface chip. This PMMA surface chip was immersed in an NaOH aqueous solution (1 N) at 40° C. for 16 hours, followed by washing with water 3 times. This sample is called a PMMA/COOH surface chip. This PMMA/COOH surface chip was immersed in 2 ml of a mixed solution of 1-ethyl-2,3-dimethylaminopropylcarbodiimide (400 mM) and N-hydroxysuccinimide (100 mM) for 60 minutes. Thereafter, it was immersed in 2 ml of an α-amino-polyethyleneoxy-ω-carboxylic acid (mean molecular weight: 5,000) aqueous solution (10 mM) for 16 hours. The resultant product was finally washed with water 5 times. The thus obtained sensor chip was used in the following operation.
(§1) A mixed solution of 1-ethyl-2,3-dimethylaminopropylcarbodiimide (400 mM) and N-hydroxysuccinimide (100 mM) was added to the sensor chip produced in (1) above, followed by leaving at rest for 20 minute. Thereafter, the resultant product was washed with an HBS-N buffer containing 10 mM CaCl2. Subsequently, trypsin (1 mg/ml, 10 mM CaCl2-containing HBS-N buffer) was added thereto, followed by leaving at rest for 30 minutes. Thereafter, the resultant product was washed with a 10 mM CaCl2-containing HBS-N buffer.
Thereafter, an ethanolamine/HCl solution (1M, pH 8.5) was added to the measurement chip, followed by washing with an HBS-N buffer (manufactured by Biacore).
The sensor chip on which trypsin had been immobilized was washed with an HBS-N buffer.

For assay [2], the target named is T1, Trypsin. Briefly: Enzyme activity of trypsin on PMMA chip with Bz-Arg-MCA, fluorescence (Example 5). It counts as biochemical. The conditions noted are these: leupeptin 0.002 mM, 0.1 mM Bz-Arg-MCA. The procedure:
Using the PMMA chip after the measurement of the amount of leupeptin binding to trypsin in (2) above, the enzyme activity of trypsin was measured. Specifically, a substrate specific to trypsin (benzoyl-L-arginine-4-methylcoumarin-7-amide (hereinafter referred to as Bz-Arg-MCA); Peptide Institute, Inc.) was allowed to react with trypsin, and fluorescence in the decomposed product was measured.
The inside of the PMMA measurement chip was washed with an HBS-N buffer. Thereafter, a leupeptin solution (0.002 mM, HBS-N buffer) and 0.1 mM Bz-Arg-MCA were added thereto. The reaction was then carried out for 10, 30, 60, and 120 minutes.
(§2) Fluorescence measurement was carried out regarding the reaction for each of the aforementioned reaction times, using the BMGLabTechnologies FLUstar measurement device (excitation: 380 nm; and emission: 460 nm).

Assay [3] deals with T1, Trypsin. Briefly: Selection of compounds due to biological activity: trypsin enzyme activity with Bz-Arg-MCA, fluorescence (Example 7). It counts as biochemical. The procedure:
(§3) Specifically, a substrate specific to trypsin (benzoyl-L-arginine-4-methylcoumarin-7-amide (hereinafter referred to as Bz-Arg-MCA); Peptide Institute, Inc.) was allowed to react with trypsin, and fluorescence in the decomposed product was measured.
Thereafter, the reaction was then carried out for 10, 30, 60, and 120 minutes.
as §2

Assay [4] addresses T1, Trypsin. In words: Enzyme activity of immobilized trypsin with Bz-Arg-MCA, fluorescence of decomposed product, same hydrogel chip (Examples 1-4). It counts as biochemical. The conditions noted are these: for Measurement results of fluorescence intensity (120 minutes): 0.002 mM substance, 0.1 mM Bz-Arg-MCA, excitation 380 nm, emission 460 nm, no substance: 580; for Inhibitory action on the enzyme activity of trypsin (in words): comment on Table 1. As for the experimental part:
Using the chip after the measurement of the amount of leupeptin binding to trypsin described in (2) above, the enzyme activity of trypsin was measured. Specifically, a substrate specific to trypsin (benzoyl-L-arginine-4-methylcoumarin-7-amide (hereinafter referred to as Bz-Arg-MCA); Peptide Institute, Inc.) was allowed to react with trypsin, and fluorescence in the decomposed product was measured.
The HBS-N buffer contained in the measurement chip was removed, and a leupeptin solution (0.002 mM, HBS-N buffer) and 0.1 mM Bz-Arg-MCA were added thereto. The reaction was then carried out for 10, 30, 60, and 120 minutes.
Fluorescence measurement was carried out regarding the reaction for each of the aforementioned reaction times, using the BMGLabTechnologies FLUOstar measurement device (excitation: 380 nm; and emission: 460 nm).
as §3
The reaction was then carried out for 10, 30, 60, and 120 minutes.
Fluorescence measurement was carried out regarding the reaction for each of the aforementioned reaction times, using the BMGLabTechnologies FLUstar measurement device (excitation: […]; and emission: 460 nm).
Using the chip after the measurement of the amount of chymostatin binding to trypsin in (2) above, the enzyme activity of trypsin was measured. Specifically, a substrate specific to trypsin (benzoyl-L-arginine-4-methylcoumarin-7-amide (hereinafter referred to as Bz-Arg-MCA); Peptide Institute, Inc.) was allowed to react with trypsin, and fluorescence in the decomposed product was measured.
The HBS-N buffer contained in the measurement chip was removed, and a chymostatin solution (0.002 mM, HBS-N buffer) and 0.1 mM Bz-Arg-MCA were added thereto. The reaction was then carried out for 10, 30, 60, and 120 minutes.
as §2

The target in assay [5] is T1, Trypsin. Briefly: SPR measurement of substance binding to trypsin immobilized on hydrogel-coated chip (Examples 1-4). The conditions noted are these: for Bond of substance interacting with trypsin (RU): 0.002 mM solution, left at rest 10 minutes, change of resonance signal, hydrogel-coated chip; for Binding to trypsin (in words): comment on Table 1. As for the experimental part:
Trypsin (manufactured by Worthington) was immobilized on a measurement chip. Interaction measurement was carried out using a surface plasmon resonance measurement device.
as §1, with “solution consisting” for “solution”, “a hydrogel-coated chip,” for “the sensor chip produced in (1) above,”, “buffer. The used HBS-N buffer is composed of 0.01 mol/l (pH 7.4) HEPES (N-2-hydroxyethylpiperazine-N′-2-ethanesulfonic acid) and 0.15 mol/l NaCl.” for “buffer.”
Thereafter, an ethanolamine/HCl solution (1M, pH 8.5) was added to the measurement chip, followed by washing with an HBS-N buffer (manufactured by Biacore), so as to block COOH groups that remained without reacting with trypsin.
By the aforementioned operations, trypsin was immobilized on the surface of the measurement chip via a covalent bond. The amount by which resonance signals (RU value) obtained before the addition of trypsin and after washing it had changed was defined as the immobilized amount of trypsin (RU value).
A measurement chip was washed with an HBS-N buffer. Thereafter, the measurement chip was equipped into a surface plasmon resonance measurement device, and a leupeptin solution (0.002 mM, HBS-N buffer) was added thereto, followed by leaving at rest for 10 minutes. The amount by which resonance signals (RU value) had changed was defined as the amount of leupeptin (manufactured by ICN) binding to trypsin.
A measurement chip was washed with an HBS-N buffer.
A measurement chip was washed with an HBS-N buffer. Thereafter, the measurement chip was equipped into a surface plasmon resonance measurement device, and a chymostatin solution (0.002 mM, HBS-N buffer) was added thereto, followed by leaving at rest for 10 minutes. The amount by which resonance signals (RU value) had changed was defined as the amount of chymostatin (manufactured by ICN) binding to trypsin.

Assay [6] has as its target T1, Trypsin. In words: SPR binding to trypsin on PMMA measurement chip, Biacore 3000 (Example 5). The conditions noted are these: leupeptin 0.002 mM, 10 minutes. The procedure:
Trypsin (manufactured by Worthington) was immobilized on a PMMA measurement chip. Interaction measurement was carried out using a surface plasmon resonance measurement device (Biacore 3000).
A PMMA measurement chip was equipped into Biacore 3000. A mixed solution of 1-ethyl-2,3-dimethylaminopropylcarbodiimide (400 mM) and N-hydroxysulfosuccinimide (100 mM) was added thereto, followed by reaction for 7 minutes. Thereafter, trypsin (0.05 mg/ml, 10 mM CaCl2-containing HBS-N buffer) was added thereto, followed by reaction for 7 minutes.
Thereafter, an ethanolamine/HCl solution (1M, pH 8.5) was added to the measurement chip, followed by reaction for 7 minutes, so as to block COOH groups that remained without reacting with trypsin.
By the aforementioned operations, trypsin was immobilized on the surface of the PMMA measurement chip via a covalent bond. The amount by which resonance signals (RU value) obtained before the addition of trypsin and after washing it had changed was defined as the immobilized amount of trypsin (RU value).
A leupeptin solution (0.002 mM, HBS-N buffer) was added to a measurement chip, followed by reaction for 10 minutes. The amount by which resonance signals (RU value) had changed was defined as the amount of leupeptin (manufactured by ICN) binding to trypsin.

With `CC(=O)N[C@@H](CC(C)C)C(=O)N[C@@H](CC(C)C)C(=O)N[C@H](C=O)CCCNC(=N)N` [Leupeptin], at Trypsin [1] (Example 6 (3)), the “Binding observed, selection of compounds (in words)” value is recorded as “the binding of which were observed, were selected”. In addition, the “Binding amount (RU)” value on Trypsin [1] stood at 23 RU. For the same compound, the “Selection due to binding amount” value on Trypsin [1] (symbols ◯ / X, key not given) is “◯”. Besides, the “Fluorescence intensity, compared with CM5 cup” value on Trypsin [2] is on record as “equivalent to the values obtained with CM5 cup”. Also, at Trypsin [3] (4 μM compound solution mixed 1:1 with 0.2 mM Bz-Arg-MCA, reaction time of the value not given, no compound: 594), the “Measurement value of fluorescence intensity” value is 3. Moreover, on Trypsin [3] (Example 7 (3)), the “Inhibition of the enzyme activity of trypsin, selection of compounds (in words)” value was “inhibited the enzyme activity of trypsin”. Moreover, the “Selection due to enzyme activity” value at Trypsin [3] (symbols ◯ / X, key not given) is given as “◯”. In addition, at Trypsin [4], the “Measurement results of fluorescence intensity (120 minutes)” value is reported as 2 and the “Inhibitory action on the enzyme activity of trypsin (in words)” value is on record as “inhibiting the enzyme activity”. Moreover, on Trypsin [5], the “Bond of substance interacting with trypsin (RU)” value came to 22 RU and the “Binding to trypsin (in words)” value is “bound to the enzyme activity site of trypsin”. Also, at Trypsin [6], the “Binding amount of substance interacting with trypsin, compared with CM5 cup” value is on record as “equivalent to the values obtained with CM5 cup”.
Regarding `CC(C)C[C@H](NC(=O)[C@@H](NC(=O)N[C@@H](Cc1ccccc1)C(=O)O)[C@@H]1CCN=C(N)N1)C(=O)N[C@H](C=O)Cc1ccccc1` [Chymostatin], the “Binding amount (RU)” value on Trypsin [1] turned out to be 0 RU. At Trypsin [4], the “Measurement results of fluorescence intensity (120 minutes)” value is on record as 576 and the “Inhibitory action on the enzyme activity of trypsin (in words)” value is given as “no inhibitory action on the enzyme activity of trypsin was observed”. In addition, on Trypsin [5], the “Bond of substance interacting with trypsin (RU)” value is listed as 0 RU and the “Binding to trypsin (in words)” value is reported as “did not bind to trypsin”.
